Experimental data: patent publication US5258397A, “3-Isoxazoyl derivatives endowed with anticonvulsant activity, procedure for their preparation and their pharmaceutical compositions” (Novapharme, priority 1988, dated 1993)

Columns and labels:
SWISS CDl mice [1] = experiment: Electroshock test (anticonvulsant activity); assay type: in vivo; conditions: i.p., % of animals not extending the hind paws; for % protection against Electro shock 30 min.: 1/10 of the LD50, 30 min before electroshock; for % protection against Electro shock 4 h: 1/10 of the LD50, 4 hours before electroshock
Method: (§1) The anticonvulsant activity is measured by the electroshock and pentetrazole tests according to the procedure of A. SWINYARD (ADD PROGRAM OF NINCDS BY H. J. KUPFERBERG. E. A. SWINYARD AND G. D. GLADDING in Advances in Epileptology/XIIth Epilepsy International Symposium edited by M. DAM, L. GRAM and J. K. PENRY-RAVEN press N.Y. 1981). The compounds are always administered (at 1/10 of the LD50) by IP injections into SWISS CDl mice (Charles River) of 20-25 g mean weight. All of the compounds are dissolved in a 0.9% solution of sodium chloride or suspended in a 1% solution of carboxymethyl cellulose or tween.
Electroshock test. Groups of 10 mice (1 control group and one treated group) are used for each compound. The treated group receives the compound to be tested by the intraperitoneal route either 30 mn before the electroshock or 4 hours before the electroshock. This latter is applied with the aid of corneal electrodes (50 milliamperes for 0.2 second). Protection is measured by the percentage of animals not extending the hind paws.

SWISS CDl mice [2] = experiment: Seizures induced by pentetrazole (anticonvulsant activity); assay type: in vivo; conditions: i.p., % protected against clonic seizures; for % protection against Pentetrazole 30 mn.: 1/10 of the LD50, 30 mn before pentetrazole 70 mg/kg s.c.; for % protection against Pentetrazole 4 h: 1/10 of the LD50, 4 hours before pentetrazole 70 mg/kg s.c.
Method: as §1
Seizures induced by pentetrazole. 70 mg/kg of pentetrazole are injected by the subcutaneous route into groups of 10 mice (1 control group and one treated group) in a volume of 0.2 ml/20 g of body weight. The compounds to be tested are administered either 30 mn before pentetrazole or 4 hours before pentetrazole by the intraperitoneal route. The animals are observed for 30 mn. The number of clonic seizures lasting 5 seconds or more and the percentage of the animals protected against clonic seizures are recorded.

[3] = Determination of the lethal dose 50 (MILLER and TAINTER); conditions: in vivo, ip
Method: The toxicity is measured by the technique of MILLER and TAINTER by the intraperitoneal route.

mice = experiment: Cerebral protective activity: hypoxia induced by the altitude; assay type: in vivo; conditions: i.p., 30 min before closed chamber at 210 mm Hg
Method: Five mice (20 to 25 g) receive an administration of the compound or the liquid vehicle by the intraperitoneal route 30 min. before being placed in a closed chamber in which the atmospheric pressure is reduced to 210 mm Hg. The time of survival (in seconds) is measured from the induction of hypoxia to the cessation of respiratory movements.

**Q.** Which “% protection against Electro shock 30 min.” value (SWISS CDl mice [1]) does the source give for `Cc1cccc(C)c1N(C)C(=O)c1cc(C)n(C)n1` [Compound 7] here?
**A.** 70%

**Q.** And the “% protection against Electro shock 4 h” value (SWISS CDl mice [1])?
**A.** 0%

**Q.** And the “% protection against Pentetrazole 30 mn.” value (SWISS CDl mice [2])?
**A.** 30%

**Q.** What about the “% protection against Pentetrazole 4 h” value (SWISS CDl mice [2]) of the same molecule?
**A.** 0%

**Q.** And the LD50 [3]?
**A.** 400 mg/kg

**Q.** With `Cc1cccc(C)c1NC(=O)c1cc(COC(=O)c2ccccc2)on1` [Compound 29] as the molecule, how does the “% protection against Electro shock 30 min.” value (SWISS CDl mice [1]) read?
**A.** 70%

**Q.** What about the “% protection against Electro shock 4 h” value (SWISS CDl mice [1]) of the same molecule?
**A.** 0%

**Q.** And the “% protection against Pentetrazole 30 mn.” value (SWISS CDl mice [2])?
**A.** 10%

**Q.** And the “% protection against Pentetrazole 4 h” value (SWISS CDl mice [2])?
**A.** 10%

**Q.** What about the LD50 [3] of the same molecule?
**A.** 2000 mg/kg

**Q.** With `COc1cc(C(=O)Nc2c(C)cccc2C)nn1C` [Compound 15, 3-(2,6-dimethylphenylcarbamoyl) 1-methyl 5-methoxy pyrazole] as the molecule, how does the “% protection against Electro shock 30 min.” value (SWISS CDl mice [1]) read?
**A.** 10%

**Q.** What about the “% protection against Electro shock 4 h” value (SWISS CDl mice [1]) of the same molecule?
**A.** 0%

**Q.** What about the “% protection against Pentetrazole 30 mn.” value (SWISS CDl mice [2]) of the same molecule?
**A.** 0%

**Q.** What about the “% protection against Pentetrazole 4 h” value (SWISS CDl mice [2]) of the same molecule?
**A.** 10%

**Q.** What about the “hypoxia induced by the altitude; increase time of survival as % of controls” value (mice) of the same molecule?
**A.** 21 % of controls

**Q.** What about the LD50 ([3]; intraperitoneal route) of the same molecule?
**A.** 400 mg/kg

**Q.** Which results are given for `Cc1cccc(Cl)c1NC(=O)c1cc(C)n(C)n1` [Compound 5, 3-(2-chloro 6-methylphenylcarbamoyl) 1,5-dimethyl pyrazole]?
**A.** % protection against Electro shock 30 min. (SWISS CDl mice [1]): 100%; % protection against Electro shock 4 h (SWISS CDl mice [1]): 10%; % protection against Pentetrazole 30 mn. (SWISS CDl mice [2]): 40%; % protection against Pentetrazole 4 h (SWISS CDl mice [2]): 10%; LD50 ([3]; intraperitoneal route): 500 mg/kg

**Q.** Which “% protection against Electro shock 30 min.” value (SWISS CDl mice [1]) does the source give for `Cc1cc(NC(=O)c2c(C)cccc2C)no1` [Compound 17] here?
**A.** 100%

**Q.** And the “% protection against Electro shock 4 h” value (SWISS CDl mice [1])?
**A.** 0%

**Q.** And the “% protection against Pentetrazole 30 mn.” value (SWISS CDl mice [2])?
**A.** 30%

**Q.** What about the “% protection against Pentetrazole 4 h” value (SWISS CDl mice [2]) of the same molecule?
**A.** 20%

**Q.** What about the LD50 [3] of the same molecule?
**A.** 2000 mg/kg

**Q.** With `CC(=O)n1nc(C(=O)Nc2c(C)cccc2C)cc1C` [Compound 41] as the molecule, how does the “% protection against Electro shock 30 min.” value (SWISS CDl mice [1]) read?
**A.** 100%

**Q.** What about the “% protection against Electro shock 4 h” value (SWISS CDl mice [1]) of the same molecule?
**A.** 0%

**Q.** What about the “% protection against Pentetrazole 30 mn.” value (SWISS CDl mice [2]) of the same molecule?
**A.** 50%

**Q.** What about the “% protection against Pentetrazole 4 h” value (SWISS CDl mice [2]) of the same molecule?
**A.** 0%

**Q.** What about the LD50 [3] of the same molecule?
**A.** 350 mg/kg

**Q.** Which “% protection against Electro shock 30 min.” value (SWISS CDl mice [1]) does the source give for `Cc1cccc(C)c1NC(=O)c1cc(C)n(C)n1` [Compound 4, 3-(2,6-dimethylphenylcarbamoyl) 1,5-dimethyl pyrazole] here?
**A.** 100%

**Q.** And the “% protection against Electro shock 4 h” value (SWISS CDl mice [1])?
**A.** 0%

**Q.** And the “% protection against Pentetrazole 30 mn.” value (SWISS CDl mice [2])?
**A.** 30%

**Q.** And the “% protection against Pentetrazole 4 h” value (SWISS CDl mice [2])?
**A.** 10%

**Q.** And the “hypoxia induced by the altitude; increase time of survival as % of controls” value (mice)?
**A.** 60 % of controls

**Q.** And the LD50 ([3]; intraperitoneal route)?
**A.** 150 mg/kg

**Q.** With `Cc1cccc(C)c1C(=O)Nc1cc(C)n(C)n1` [Compound 3, N-(1,5-dimethyl-3-pyrazolyl)2,6-dimethylbenzamide] as the molecule, how does the “% protection against Electro shock 30 min.” value (SWISS CDl mice [1]) read?
**A.** 100%

**Q.** What about the “% protection against Electro shock 4 h” value (SWISS CDl mice [1]) of the same molecule?
**A.** 0%

**Q.** What about the “% protection against Pentetrazole 30 mn.” value (SWISS CDl mice [2]) of the same molecule?
**A.** 50%

**Q.** And the “% protection against Pentetrazole 4 h” value (SWISS CDl mice [2])?
**A.** 0%

**Q.** What about the LD50 ([3]; intraperitoneal route) of the same molecule?
**A.** 1000 mg/kg

**Q.** Which “% protection against Electro shock 30 min.” value (SWISS CDl mice [1]) does the source give for `Cc1cccc(C)c1NC(=O)c1cc(CF)on1` [Compound 31, 3-(2,6-dimethylphenylcarbamoyl) 5-fluoromethyl isoxazole] here?
**A.** 100%

**Q.** And the “% protection against Electro shock 4 h” value (SWISS CDl mice [1])?
**A.** 0%

**Q.** What about the “% protection against Pentetrazole 30 mn.” value (SWISS CDl mice [2]) of the same molecule?
**A.** 0%

**Q.** What about the “% protection against Pentetrazole 4 h” value (SWISS CDl mice [2]) of the same molecule?
**A.** 0%

**Q.** What about the LD50 ([3]; intraperitoneal route) of the same molecule?
**A.** 375 mg/kg

**Q.** For `CC(=O)n1nc(C(=O)Nc2c(C)cccc2Cl)cc1C` [Compound 2, 3-(2-chloro 6-methylphenylcarbamoyl) 1-acetyl 5-methyl pyrazole], which “% protection against Electro shock 30 min.” value (SWISS CDl mice [1]) is on record?
**A.** 100%

**Q.** And the “% protection against Electro shock 4 h” value (SWISS CDl mice [1])?
**A.** 0%

**Q.** What about the “% protection against Pentetrazole 30 mn.” value (SWISS CDl mice [2]) of the same molecule?
**A.** 80%

**Q.** What about the “% protection against Pentetrazole 4 h” value (SWISS CDl mice [2]) of the same molecule?
**A.** 0%

**Q.** What about the LD50 ([3]; intraperitoneal route) of the same molecule?
**A.** 350 mg/kg
